Each molecule was assayed against BCL2 (Homo sapiens (Human), UniProt P10415) (assay: Molecular level activity test of anti-apoptotic protein BCL2 (HTRF, binding to Bim peptide)). Conditions: HTRF, binding of BCL2 to Bim peptide; read-out: BCL2 nM (inhibitory activity, IC50).
Procedure, shortened: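 Compound (2% DMSO) was mixed with His-tagged recombinant BCL2 and biotinylated Bim peptide for 1 h. Detection used anti-His antibody plus streptavidin-XL665 for 4 h at room temperature, read by time-resolved fluorescence.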

Sequence of BCL2 (P10415 whole entry): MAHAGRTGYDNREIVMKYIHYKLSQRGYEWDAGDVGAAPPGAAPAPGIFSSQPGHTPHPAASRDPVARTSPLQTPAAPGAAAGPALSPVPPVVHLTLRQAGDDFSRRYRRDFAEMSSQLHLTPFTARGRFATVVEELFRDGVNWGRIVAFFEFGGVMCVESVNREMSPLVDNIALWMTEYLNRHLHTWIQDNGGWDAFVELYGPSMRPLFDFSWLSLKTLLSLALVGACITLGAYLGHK

Compound	IC50
COc1ccc(CN2CCN(C3CC4(CCN(c5cc(Oc6cnc7[nH]ccc7c6)c(C(=O)NS(=O)(=O)c6cc([N+](=O)[O-])c(NCC7CCOCC7)c7[nH]cnc67)cn5)CC4)C3)C(c3ccccc3C(C)C)C2)cc1 (stereo not drawn) [compound 075, 4-((1H-pyrrolo[2,3-b]pyrid-5-yl)oxy)-6-(2-(2-(2-isopropylphenyl)-4-(4-methoxybenzyl)piperazin-1-yl)-7-azaspiro[3.5]non-7-yl)-N-((6-nitro-7-(((tetrahydro-2H-pyran-4-yl)methyl)amino)-1H benzo[d]imidazol-4-yl)sulfonyl) nicotinamide]	< 10 nM
COc1ccc(CN2CCN(C3CC4(CCN(c5cc(Oc6cnc7[nH]ccc7c6)c(C(=O)NS(=O)(=O)c6cc([N+](=O)[O-])c(NCC7CCOCC7)c7[nH]cnc67)cc5F)CC4)C3)C(c3ccccc3C(C)C)C2)cc1 (stereo not drawn) [compound 076, 2-((1H-pyrrolo[2,3-b]pyrid-5-yl)oxy)-5-fluoro-4-(2-(2-(2-isopropylphenyl)-4-(4-methoxybenzyl)piperazin-1-yl)-7-azaspiro[3.5]non-7-yl)-N-((6-nitro-7-(((tetrahydro-2H-pyran-4-yl)methyl)amino)-1H-benzo[d]imidazol-4-yl)sulfonyl)benzamide]	< 10 nM
COc1ccc(CN2CCN(C3CC4(CCN(c5cc(Oc6cnc7[nH]ccc7c6)c(C(=O)NS(=O)(=O)c6cc([N+](=O)[O-])c(NCC7(F)CCOCC7)c7[nH]cnc67)cn5)CC4)C3)C(c3ccccc3C(C)C)C2)cc1 (stereo not drawn) [compound 077, 4-((1H-pyrrolo[2,3-b]pyrid-5-yl)oxy)-N-((7-(((4-fluorotetrahydro-2H-pyran-4-yl)methyl)amino)-6-nitro-1H-benzo[d]imidazol-4-yl)sulfonyl)-6-(2-(2-(2-isopropylphenyl)-4-(4-methoxybenzyl)piperazin-1-yl)-7-azaspiro[3.5]non-7-yl) nicotinamide]	< 10 nM
COc1ccc(CN2CCN(C3CC4(CCN(c5cc(Oc6cnc7[nH]ccc7c6)c(C(=O)NS(=O)(=O)c6cc([N+](=O)[O-])c(NCC7(F)CCOCC7)c7[nH]cnc67)cc5F)CC4)C3)C(c3ccccc3C(C)C)C2)cc1 (stereo not drawn) [compound 078, 2-((1H-pyrrolo[2,3-b]pyrid-5-yl)oxy)-5-fluoro-N-((7-(((4-fluorotetrahydro-2H-pyran-4-yl)methyl)amino)-6-nitro-1H-benzo[d]imidazol-4-yl)sulfonyl)-4-(2-(2-(2-isopropylphenyl)-4-(4-methoxybenzyl)piperazin-1-yl)-7-azaspiro[3.5]non-7-yl)benzamide]	< 10 nM
CC(C)c1ccccc1[C@@H]1CCCN1C1CC2(CCN(c3ccc(C(=O)NS(=O)(=O)c4cc([N+](=O)[O-])c(NC[C@H]5CC[C@](C)(O)CC5)c5[nH]cnc45)c(N4CCOc5nc6[nH]ccc6cc54)c3)CC2)C1 [compound 079, 2-(2,3-dihydropyrrolo[3′,2′:5,6]pyridino[2,3-b][1,4]oxazin-1 (6H)-yl)-N-((7-((((1r,4r)-4-hydroxy-4-methylcyclohexyl)methyl)amino)-6-nitro-1H-benzo[d]imidazol-4-yl)sulfonyl)-4-(2-((S)-2-(2-isopropylphenyl)pyrrolidin-1-yl)-7-azaspiro[3.5]non-7-yl)benzamide]	< 10 nM
CC(C)c1ccccc1[C@@H]1CCCN1C1CC2(CCN(c3ccc(C(=O)NS(=O)(=O)c4cc([N+](=O)[O-])c(NCC5(F)CCN(C6COC6)CC5)c5[nH]cnc45)c(N4CCOc5nc6[nH]ccc6cc54)c3)CC2)C1 [compound 080, (S)-2-(2,3-dihydropyrrolo[3′,2′:5,6]pyridino[2,3-b][1,4]oxazin-1 (6H)-yl)-N-((7-(((4-fluoro-1-(oxocyclobut-3-yl)piperid-4-yl)methyl)amino)-6-nitro-1H-benzo[d]imidazol-4-yl)sulfonyl)-4-(2-(2-(2-isopropylphenyl)pyrrolidin-1-yl)-7-azaspiro[3.5]non-7-yl)benzamide]	< 10 nM
CC(C)c1ccccc1[C@@H]1CCCN1C1CC2(CCN(c3cc(N4CCOc5nc6[nH]ccc6cc54)c(C(=O)NS(=O)(=O)c4cc([N+](=O)[O-])c(NC[C@H]5CC[C@](C)(O)CC5)c5[nH]cnc45)cn3)CC2)C1 [compound 081, 4-(2,3-dihydropyrrolo[3′,2′:5,6]pyridino[2,3-b][1,4]oxazin-1 (6H)-yl)-N-((7-((((1r,4r)-4-hydroxy-4-methylcyclohexyl)methyl)amino)-6-nitro-1H-benzo[d]imidazol-4-yl)sulfonyl)-6-(2-((S)-2-(2-isopropylphenyl)pyrrolidin-1-yl)-7-azaspiro[3.5]non-7-yl) nicotinamide]	< 10 nM
CC(C)c1ccccc1[C@@H]1CCCN1C1CC2(CCN(c3cc(N4CCOc5nc6[nH]ccc6cc54)c(C(=O)NS(=O)(=O)c4cc([N+](=O)[O-])c(NC[C@H]5CC[C@](C)(O)CC5)c5[nH]cnc45)cc3F)CC2)C1 [compound 082, 2-(2,3-dihydropyrrolo[3′,2′:5,6]pyridino[2,3-b][1,4]oxazin-1 (6H)-yl)-5-fluoro-N-((7-((((1r,4r)-4-hydroxy-4-methylcyclohexyl)methyl)amino)-6-nitro-1H-benzo[d]imidazol-4-yl)sulfonyl)-4-(2-((S)-2-(2-isopropylphenyl)pyrrolidin-1-yl)-7-azaspiro[3.5]non-7-yl)benzamide]	< 10 nM
CC(C)c1ccccc1[C@@H]1CCCN1C1CC2(CCN(c3cc(N4CCOc5nc6[nH]ccc6cc54)c(C(=O)NS(=O)(=O)c4cc([N+](=O)[O-])c(NCC5(F)CCN(C(C)C)CC5)c5[nH]cnc45)cn3)CC2)C1 [compound 083, (S)-4-(2,3-dihydropyrrolo[3′,2′:5,6]pyridino[2,3-b][1,4]oxazin-1 (6H)-yl)-N-((7-(((4-fluoro-1-isopropylpiperid-4-yl)methyl)amino)-6-nitro-1H-benzo[d]imidazol-4-yl)sulfonyl)-6-(2-(2-(2-isopropylphenyl)pyrrolidin-1-yl)-7-azaspiro[3.5]non-7-yl) nicotinamide]	< 10 nM
CC(C)c1ccccc1[C@@H]1CCCN1C1CC2(CCN(c3cc(N4CCOc5nc6[nH]ccc6cc54)c(C(=O)NS(=O)(=O)c4cc([N+](=O)[O-])c(NCC5(F)CCN(C(C)C)CC5)c5[nH]cnc45)cc3F)CC2)C1 [compound 084, (S)-2-(2,3-dihydropyrrolo[3′,2′:5,6]pyridino[2,3-b][1,4]oxazin-1 (6H)-yl)-5-fluoro-N-((7-(((4-fluoro-1-isopropylpiperid-4-yl)methyl)amino)-6-nitro-1H-benzo[d]imidazol-4-yl)sulfonyl)-4-(2-(2-(2-isopropylphenyl)pyrrolidin-1-yl)-7-azaspiro[3.5]non-7-yl)benzamide]	< 10 nM

Second part, the molecule after the results:

IC50	Compound
< 10 nM	COc1ccc(CN2CCN(C3CC4(C3)CN(c3cc(Oc5cnc6[nH]ccc6c5)c(C(=O)NS(=O)(=O)c5cc([N+](=O)[O-])c(NCC6(F)CCN(C(C)C)CC6)c6[nH]cnc56)cn3)C4)C(c3ccccc3C(C)C)C2)cc1 (stereo not drawn) [compound 070, 4-((1H-pyrrolo[2,3-b]pyrid-5-yl)oxy)-N-((7-(((4-fluoro-1-isopropylpiperid-4-yl)methyl)amino)-6-nitro-1H-benzo[d]imidazol-4-yl)sulfonyl)-6-(6-(2-(2-isopropylphenyl)-4-(4-methoxybenzyl)piperazin-1-yl)-2-azaspiro[3.3]hept-2-yl) nicotinamide]
< 10 nM	COc1ccc(CN2CCN(C3CC4(CCN(c5cc(Oc6cnc7[nH]ccc7c6)c(C(=O)NS(=O)(=O)c6cc([N+](=O)[O-])c(NC[C@H]7CC[C@](C)(O)CC7)c7[nH]cnc67)cc5F)CC4)C3)C(c3ccccc3C(C)C)C2)cc1 (stereo partly drawn) [compound 071, 2-((1H-pyrrolo[2,3-b]pyrid-5-yl)oxy)-5-fluoro-N-((7-((((1r,4r)-4-hydroxy-4-methylcyclohexyl)methyl)amino)-6-nitro-1H-benzo[d]imidazol-4-yl)sulfonyl)-4-(2-(2-(2-isopropylphenyl)-4-(4-methoxybenzyl)piperazin-1-yl)-7-azaspiro[3.5]non-7-yl)benzamide]
< 10 nM	COc1ccc(CN2CCN(C3CC4(C3)CN(c3cc(Oc5cnc6[nH]ccc6c5)c(C(=O)NS(=O)(=O)c5cc([N+](=O)[O-])c(NC[C@H]6CC[C@](C)(O)CC6)c6[nH]cnc56)cc3F)C4)C(c3ccccc3C(C)C)C2)cc1 (stereo partly drawn) [compound 072, 2-((1H-pyrrolo[2,3-b]pyrid-5-yl)oxy)-5-fluoro-N-((7-((((1r,4r)-4-hydroxy-4-methylcyclohexyl)methyl)amino)-6-nitro-1H-benzo[d]imidazol-4-yl)sulfonyl)-4-(6-(2-(2-isopropylphenyl)-4-(4-methoxybenzyl)piperazin-1-yl)-2-azaspiro[3.3]hept-2-yl)benzamide]
< 10 nM	COc1ccc(CN2CCN(C3CC4(CCN(c5cc(Oc6cnc7[nH]ccc7c6)c(C(=O)NS(=O)(=O)c6cc([N+](=O)[O-])c(NCC7(F)CCN(C(C)C)CC7)c7[nH]cnc67)cc5F)CC4)C3)C(c3ccccc3C(C)C)C2)cc1 (stereo not drawn) [compound 073, 2-((1H-pyrrolo[2,3-b]pyrid-5-yl)oxy)-5-fluoro-N-((7-(((4-fluoro-1-isopropylpiperid-4-yl)methyl)amino)-6-nitro-1H-benzo[d]imidazol-4-yl)sulfonyl)-4-(2-(2-(2-isopropylphenyl)-4-(4-methoxybenzyl)piperazin-1-yl)-7-azaspiro[3.5]non-7-yl)benzamide]
< 10 nM	COc1ccc(CN2CCN(C3CC4(C3)CN(c3cc(Oc5cnc6[nH]ccc6c5)c(C(=O)NS(=O)(=O)c5cc([N+](=O)[O-])c(NCC6(F)CCN(C(C)C)CC6)c6[nH]cnc56)cc3F)C4)C(c3ccccc3C(C)C)C2)cc1 (stereo not drawn) [compound 074, 2-((1H-pyrrolo[2,3-b]pyrid-5-yl)oxy)-5-fluoro-N-((7-(((4-fluoro-1-isopropylpiperid-4-yl)methyl)amino)-6-nitro-1H-benzo[d]imidazol-4-yl)sulfonyl)-4-(6-(2-(2-isopropylphenyl)-4-(4-methoxybenzyl)piperazin-1-yl)-2-azaspiro[3.3]hept-2-yl)benzamide]
